Assay results reported in article PMC4503722, “Novel Phenotypic Outcomes Identified for a Public Collection of Approved Drugs from a Publicly Accessible Panel of Assays” (PLoS ONE, 2015).

Experiments:
[1] = test system: ECFC/ADSC co-culture cell nuclei number; conditions: for IC50: read-out: VEGF_ADSC\ECFC Angio Hoechst NucArea summarized IC50
[2] = test system: endothelial tube formation in co-cultures of ECFCs and ADSCs treated with VEGF; assay: cells; format: cell-based, human; conditions: for IC50: read-out: VEGF_ADSC\ECFC Angio CD31 TubeArea summarized IC50

Compound	VEGF_ADSC\ECFC Angio Hoechst NucArea IC50/EC50 [1] [µM]	VEGF_ADSC\ECFC Angio CD31 TubeArea IC50/EC50 [2] [µM]	further results
O=C(Nc1ccc([N+](=O)[O-])cc1)Nc1ccc([N+](=O)[O-])cc1 [NCGC00166218-02]	–	–	IC50 [1]: > 10 µM; IC50 [2]: > 10 µM
O=[N+]([O-])c1cc(I)c(O)c(I)c1 [NCGC00166241-02]	–	–	IC50 [1]: > 10 µM; IC50 [2]: > 10 µM
CCCSS/C(CCO)=C(\C)N(C=O)Cc1cnc(C)nc1N [NCGC00167447-02]	> 10	> 10	–
C#C[C@]1(O)CC[C@H]2[C@@H]3CCC4=CCCC[C@@H]4[C@H]3C(=C)C[C@@]21CC [NCGC00167449-02]	9.571	> 10	–
O=NN(CCCl)C(=O)NC1CCCCC1 [NCGC00167466-02]	> 10	> 10	–
COc1cccc(CCc2ccccc2OCC(CN(C)C)OC(=O)CCC(=O)O)c1.Cl (centres unmarked) [NCGC00167489-03]	> 10	> 10	–
COC(=O)C1=C(C)NC(C)=C(C(=O)OC(C)(C)CN(C)CCC(c2ccccc2)c2ccccc2)C1c1cccc([N+](=O)[O-])c1.Cl (centres unmarked) [NCGC00167492-03]	> 10	> 10	–
COC(=O)C1=C(C)NC(C)=C(C(=O)OCCN2CCN(C(c3ccccc3)c3ccccc3)CC2)C1c1cccc([N+](=O)[O-])c1 (centres unmarked) [NCGC00167493-04]	–	–	IC50/EC50, VEGF_ADSC\ECFC Angio Hoechst NucArea (assay number 3) [1]: > 10 µM; IC50/EC50, VEGF_ADSC\ECFC Angio CD31 TubeArea (assay number 2) [2]: > 10 µM
CS(=O)(=O)CCNCc1ccc(-c2ccc3ncnc(Nc4ccc(OCc5cccc(F)c5)c(Cl)c4)c3c2)o1 [NCGC00167507-04]	> 10	> 10	–
CC[C@]1(O)CC[C@H]2[C@@H]3CCC4=CCCC[C@@H]4[C@H]3CC[C@@]21C [NCGC00167514-02]	> 10	6.2451	–
CCCCCCCCCCCCCCCCCCCCCC(=O)Nc1ccn([C@@H]2O[C@H](CO)[C@@H](O)[C@@H]2O)c(=O)n1 [NCGC00167515-02]	> 10	> 10	–
Cc1c(C)c2c(c(C)c1OC(=O)CCC(=O)O)CC[C@@](C)(CCC[C@H](C)CCC[C@H](C)CCCC(C)C)O2 [NCGC00167561-03]	–	–	IC50 [1]: > 10 µM; IC50 [2]: > 10 µM
O=C1OC(OC(=O)c2cccnc2Nc2cccc(C(F)(F)F)c2)c2ccccc21 (centres unmarked) [NCGC00167754-02]	> 10	> 10	–
COc1ccccc1OCCNCC(O)COc1cccc2[nH]c3ccccc3c12 (centres unmarked) [NCGC00167832-06]	> 10	> 10	–
CCCCN(CCCC)CCC(O)c1cc2c(Cl)cc(Cl)cc2c2cc(C(F)(F)F)ccc12 (centres unmarked) [NCGC00179250-03]	> 10	> 10	–
CC(=O)C[C@H]1[C@H](O[C@H]2[C@H](OC(C)C(=O)N[C@@H](C)C(=O)N[C@H](CCC(=O)N[C@@H](CCCCN)C(=O)N[C@H](C)C(=O)O)C(N)=O)[C@@H](NC(=O)O)C(O)O[C@@H]2CO)O[C@H](CO)[C@@H](O)[C@@H]1O (some centres unmarked) [NCGC00181761-01]	> 10	> 10	–
Cc1ccc(Nc2c(F)cccc2Cl)c(CC(=O)O)c1 [NCGC00181795-02]	> 10	> 10	–
CN(C)CCOC1=Cc2ccccc2Sc2ccc(Cl)cc21 [NCGC00182081-04]	> 10	> 10	–
COC(=O)N[C@H](C(=O)N[C@@H](Cc1ccccc1)[C@@H](O)CN(Cc1ccc(-c2ccccn2)cc1)NC(=O)[C@@H](NC(=O)OC)C(C)(C)C)C(C)(C)C [NCGC00182552-02]	> 10	> 10	–
